Experimental data reported in US20250171437A1 (Agios Pharmaceuticals,Inc., priority 2022, published 2025).

These molecules were tested against T1, human PAH with the R408W mutation (A375 R408W cells) (Homo sapiens, UniProt P00439, R408W) (assay: Cell Based Phenylalanine Flux Assay). Details: A375 R408W cells; 24 hrs with compound, then 20 μM sepiapterin and 800 μM 13C9,15N-Phenylalanine for 4 hours; 13C-Tyrosine by LC-MS; average where tested multiple times.
T1 construct: expressed in transfected cells
T1 sequence (P00439 1-452 R408W): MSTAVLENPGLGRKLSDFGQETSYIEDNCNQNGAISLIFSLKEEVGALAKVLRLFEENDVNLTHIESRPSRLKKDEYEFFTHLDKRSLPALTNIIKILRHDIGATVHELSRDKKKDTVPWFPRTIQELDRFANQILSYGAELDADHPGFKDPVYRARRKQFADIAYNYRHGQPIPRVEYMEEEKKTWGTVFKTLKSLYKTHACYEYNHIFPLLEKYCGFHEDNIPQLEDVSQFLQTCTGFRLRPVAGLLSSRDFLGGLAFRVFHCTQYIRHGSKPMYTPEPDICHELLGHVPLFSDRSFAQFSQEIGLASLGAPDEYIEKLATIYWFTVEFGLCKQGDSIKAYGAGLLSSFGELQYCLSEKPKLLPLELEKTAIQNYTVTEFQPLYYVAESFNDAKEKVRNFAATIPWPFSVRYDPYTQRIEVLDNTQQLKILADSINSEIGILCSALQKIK
In short: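 A375 cells stably expressing human PAH R408W treated 24 h at 37° C with a 10-point 2-fold dose curve in duplicate, 0.5% DMSO. Then 20 μM sepiapterin and 800 μM 13C9,15N-Phe added for 4 h; 13C-Tyr in media measured by LC-MS to give AC50.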

Row | AC50 [nM] | SMILES
1 | ≤ 500 | CC(C)(O)c1nc(C(F)F)c(C(=O)N2CCc3[nH]cnc3[C@H]2c2nc3c(F)cc(F)cc3o2)o1 [Example 299, (S)-(4-(4,6-difluorobenzo[d]oxazol-2-yl)-6,7-dihydro-1H-imidazo[4,5-c]pyridin-5(4H)-yl)(4-(difluoromethyl)-2-(2-hydroxypropan-2-yl)oxazol-5-yl)methanone]
2 | ≤ 500 | Cn1nc(Cl)nc1C(=O)N1CCc2[nH]cnc2[C@H]1c1nc2cccc(F)c2o1 [Example 283, (S)-(3-chloro-1-methyl-1H-1,2,4-triazol-5-yl)(4-(7-fluorobenzo[d]oxazol-2-yl)-6,7-dihydro-1H-imidazo[4,5-c]pyridin-5(4H)-yl)methanone]
3 | ≤ 500 | Cc1ccc2nc([C@@H]3c4nc[nH]c4CCN3C(=O)c3ccnn3C(F)F)oc2c1 [Example 317, (S)-(1-(difluoromethyl)-1H-pyrazol-5-yl)(4-(6-methylbenzo[d]oxazol-2-yl)-6,7-dihydro-1H-imidazo[4,5-c]pyridin-5(4H)-yl)methanone]
4 | 1000 to 5000 | Cn1nc(Cl)nc1C(=O)N1CCc2[nH]cnc2[C@@H]1c1nc2cccc(F)c2o1 [Example 284, (R)-(3-chloro-1-methyl-1H-1,2,4-triazol-5-yl)(4-(7-fluorobenzo[d]oxazol-2-yl)-6,7-dihydro-1H-imidazo[4,5-c]pyridin-5(4H)-yl)methanone]
5 | 1000 to 5000 | Cc1cccc2oc([C@H]3c4nc[nH]c4CCN3C(=O)c3nc(C(F)F)nn3C)nc12 [Example 448, (R)-(3-(difluoromethyl)-1-methyl-1H-1,2,4-triazol-5-yl)(4-(4-methylbenzo[d]oxazol-2-yl)-6,7-dihydro-1H-imidazo[4,5-c]pyridin-5(4H)-yl)methanone]
6 | 1000 to 5000 | O=C(c1ocnc1C(F)F)N1CCc2[nH]cnc2[C@@H]1c1nc2cc(F)c(F)cc2o1 [Example 296, (R)-(4-(5,6-difluorobenzo[d]oxazol-2-yl)-6,7-dihydro-1H-imidazo[4,5-c]pyridin-5(4H)-yl)(4-(difluoromethyl)oxazol-5-yl)methanone]
7 | ≤ 500 | O=C(c1ocnc1CC(F)F)N1CCc2[nH]cnc2[C@H]1c1nc2cccc(F)c2o1 [Example 863, (S)-(4-(2,2-difluoroethyl)oxazol-5-yl)(4-(7-fluorobenzo[d]oxazol-2-yl)-6,7-dihydro-1H-imidazo[4,5-c]pyridin-5(4H)-yl)methanone]
8 | ≥ 5000 | COc1cccc2nc([C@H]3c4nc[nH]c4CCN3C(=O)c3nc(C)nn3C)oc12 [Example 910, (R)-(1,3-dimethyl-1H-1,2,4-triazol-5-yl)(4-(7-methoxybenzo[d]oxazol-2-yl)-6,7-dihydro-1H-imidazo[4,5-c]pyridin-5(4H)-yl)methanone]

The remaining lines, values behind:

Row | SMILES | AC50 [nM]
9 | Cc1ccc2nc([C@@H]3c4nc[nH]c4CCN3C(=O)c3ocnc3C(F)(F)F)oc2c1 [Example 57, (S)-(4-(6-methylbenzo[d]oxazol-2-yl)-6,7-dihydro-1H-imidazo[4,5-c]pyridin-5(4H)-yl)(4-(trifluoromethyl)oxazol-5-yl)methanone] | ≤ 500
10 | O=C(c1nnc(-c2ccc(F)cn2)o1)N1CCc2[nH]cnc2[C@@H]1c1nc2cc(F)ccc2o1 [Example 34, (R)-(4-(5-fluorobenzo[d]oxazol-2-yl)-6,7-dihydro-1H-imidazo[4,5-c]pyridin-5(4H)-yl)(5-(5-fluoropyridin-2-yl)-1,3,4-oxadiazol-2-yl)methanone] | 1000 to 5000
11 | O=C(c1ccnn1C(F)F)N1CCc2[nH]cnc2[C@H]1c1nc2c(F)cccc2o1 [Example 201, (S)-(1-(difluoromethyl)-1H-pyrazol-5-yl)(4-(4-fluorobenzo[d]oxazol-2-yl)-6,7-dihydro-1H-imidazo[4,5-c]pyridin-5(4H)-yl)methanone] | 500 to 1000

Same assay, conditions: A375 cells expressing R408W PAH; 24 hrs with compound, then 20 μM sepiapterin and 800 μM 13C9,15N-Phenylalanine for 4 hours; 13C-Tyrosine by LC-MS; average where tested multiple times

Row | AC50 [nM] | SMILES
12 | 1000 to 5000 | O=C(c1cnco1)N1CCc2[nH]cnc2C1c1nc2c(F)cccc2o1 (centres unmarked)
13 | ≥ 5000 | O=C(c1nnc(-c2cnn(C(F)F)c2)o1)N1CCc2[nH]cnc2C1c1nc2cc(C(F)(F)F)ccc2o1 (centres unmarked)
14 | ≥ 5000 | O=C(c1nncn1C1CC1)N1CCc2[nH]cnc2C1c1nc2cc(F)ccc2o1 (centres unmarked)
